Columns and labels:
[1] = biological target: T1, biotinylated Avi-POLΘ[2-894] (Homo sapiens, UniProt O75417); assay: ATPase assay (ADP-Glo): POLΘ-mediated ATP hydrolysis; conditions: read-out: Biochemical ATPase ADPGlo IC50
T1 construct: 1 nM biotinylated Avi-POLΘ[2-894]

DLD1 WT cells = assay: DLD1 viability assay (CellTiter-Glo, 7 days), DLD1 WT; assay type: cell-based; conditions: Homo sapiens, DLD-1, 168 h
DLD1 BRCA2 (−/−) cells = assay: DLD1 viability assay (CellTiter-Glo, 7 days), DLD1 BRCA2 (−/−); assay type: cell-based; conditions: Homo sapiens, DLD-1, 168 h, read-out: Viability IC50 (μM) DLD1 BRCA2 null

T1 sequence (O75417 2-894 limits assumed): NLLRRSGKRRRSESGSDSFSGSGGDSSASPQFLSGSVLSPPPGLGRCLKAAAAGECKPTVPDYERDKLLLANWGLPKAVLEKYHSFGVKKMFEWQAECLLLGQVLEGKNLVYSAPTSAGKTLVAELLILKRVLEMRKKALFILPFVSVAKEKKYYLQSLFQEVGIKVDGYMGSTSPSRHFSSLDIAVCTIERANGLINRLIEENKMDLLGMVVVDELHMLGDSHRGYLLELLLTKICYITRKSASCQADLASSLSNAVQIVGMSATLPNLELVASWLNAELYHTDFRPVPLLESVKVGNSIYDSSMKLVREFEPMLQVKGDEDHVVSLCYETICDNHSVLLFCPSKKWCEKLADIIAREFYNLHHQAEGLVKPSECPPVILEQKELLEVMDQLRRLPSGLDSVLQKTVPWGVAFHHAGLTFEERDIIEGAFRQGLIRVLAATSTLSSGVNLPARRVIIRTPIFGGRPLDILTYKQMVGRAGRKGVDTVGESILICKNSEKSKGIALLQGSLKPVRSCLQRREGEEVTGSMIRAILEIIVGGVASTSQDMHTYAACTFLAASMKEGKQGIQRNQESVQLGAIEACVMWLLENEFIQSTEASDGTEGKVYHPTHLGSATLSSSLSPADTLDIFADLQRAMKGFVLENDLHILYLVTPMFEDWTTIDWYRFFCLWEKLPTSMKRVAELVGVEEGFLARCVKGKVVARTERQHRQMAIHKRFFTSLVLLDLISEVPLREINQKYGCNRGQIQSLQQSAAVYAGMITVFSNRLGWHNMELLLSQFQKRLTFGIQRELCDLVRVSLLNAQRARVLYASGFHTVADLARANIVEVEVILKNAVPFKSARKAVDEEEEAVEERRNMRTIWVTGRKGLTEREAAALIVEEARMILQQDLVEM

IC50 [1] [nM] | IC50 (DLD1 WT cells) [µM] | IC50 (DLD1 BRCA2 (−/−) cells) [µM] | SMILES
1 to 15 | – | – | COc1cnc(Cl)cc1-c1cc(C)ncc1C(=O)Nc1nc2ncc(N3CC[C@@H](OC)[C@H](F)C3)nc2s1 [Example 456, 2′-chloro-N-(6-((3R,4R)-3-fluoro-4-methoxypiperidin-1-yl)thiazolo[4,5-b]pyrazin-2-yl)-5′-methoxy-6-methyl-[4,4′-bipyridine]-3-carboxamide]
15 to 50 | – | – | COc1cnc(Cl)cc1-c1cc(C)ncc1C(=O)Nc1nc2ncc(N3CCO[C@@H](C)[C@@H]3C)nc2s1 (single isomer, unassigned) [Example 415, 2′-chloro-N-(6-((2S or R,3S or R)-2,3-dimethylmorpholino)thiazolo [4,5-b]pyrazin-2-yl)-5′-methoxy-6-methyl-[4,4′-bipyridine]-3-carboxamide]
15 to 50 | – | – | COc1cnc(Cl)cc1-c1cc(C)ncc1C(=O)Nc1nc2ncc(N3CC[C@@](C)(OC)[C@@H](F)C3)nc2s1 (single isomer, unassigned) [Example 363, 2′-chloro-N-(6-((3S or R,4R or S)-3-fluoro-4-methoxy-4-methylpiperidin-1-yl)thiazolo[4,5-b]pyrazin-2-yl)-5′-methoxy-6-methyl-[4,4′-bipyridine]-3-carboxamide]
15 to 50 | – | – | COc1cnc(Cl)cc1-c1cc(C)ncc1C(=O)Nc1nc2ncc(N3CCOCC3C(F)F)nc2s1 (stereo not drawn) [Example 426, 2′-chloro-N-(6-(3-(difluoromethyl)morpholino)thiazolo[4,5-b]pyrazin-2-yl)-5′-methoxy-6-methyl-[4,4′-bipyridine]-3-carboxamide]
1 to 15 | – | – | COc1cnc(Cl)cc1-c1cc(C)ncc1C(=O)Nc1nc2ncc(N3CCO[C@@H](C)[C@H]3C)nc2s1 (single isomer, unassigned) [Example 408, 2′-chloro-N-(6-((2S or R,3R or S)-2,3-dimethylmorpholino)thiazolo [4,5-b]pyrazin-2-yl)-5′-methoxy-6-methyl-[4,4′-bipyridine]-3-carboxamide]
1 to 15 | – | – | COc1cnc(Cl)cc1-c1cc(C)ncc1C(=O)Nc1nc2ncc(N3CCO[C@H](C)[C@H]3C)nc2s1 (single isomer, unassigned) [Example 402, 2′-chloro-N-(6-((2R or S,3R or S)-2,3-dimethylmorpholino)thiazolo [4,5-b]pyrazin-2-yl)-5′-methoxy-6-methyl-[4,4′-bipyridine]-3-carboxamide]
1 to 15 | – | – | COc1cnc(Cl)cc1-c1cc(C)ncc1C(=O)Nc1nc2ncc(N3CC[C@H](OC)[C@H](F)C3)nc2s1 [Example 453, 2′-chloro-N-(6-((3R,4S)-3-fluoro-4-methoxypiperidin-1-yl)thiazolo[4,5-b]pyrazin-2-yl)-5′-methoxy-6-methyl-[4,4′-bipyridine]-3-carboxamide]
1 to 15 | – | – | COc1cnc(Cl)cc1-c1cc(C)ncc1C(=O)Nc1nc2ncc(N3C[C@@H](C)OC[C@@H]3C)nc2s1 [Example 419, 2′-chloro-N-(6-((2R,5S)-2,5-dimethylmorpholino)thiazolo [4,5-b]pyrazin-2-yl)-5′-methoxy-6-methyl-[4,4′-bipyridine]-3-carboxamide]
1 to 15 | – | – | COc1cnc(Cl)cc1-c1cc(C)ncc1C(=O)Nc1nc2ncc(N3CC(CO)C3)nc2s1 [Example 505, 2′-chloro-N-(6-(3-(hydroxymethyl)azetidin-1-yl)thiazolo[4,5-b]pyrazin-2-yl)-5′-methoxy-6-methyl-[4,4′-bipyridine]-3-carboxamide]
15 to 50 | – | – | COc1cnc(Cl)cc1-c1cc(C)ncc1C(=O)Nc1nc2ncc(N3CC[C@H](CO)C3)nc2s1 [Example 500, (S)-2′-chloro-N-(6-(3-(hydroxymethyl)pyrrolidin-1-yl)thiazolo[4,5-b]pyrazin-2-yl)-5′-methoxy-6-methyl-[4,4'-bipyridine]-3-carboxamide]
1 to 15 | – | – | COc1cnc(Cl)cc1-c1cc(C)ncc1C(=O)Nc1nc2ncc(N3CC[C@@H](CO)C3)nc2s1 [Example 501, (R)-2′-chloro-N-(6-(3-(hydroxymethyl)pyrrolidin-1-yl)thiazolo[4,5-b]pyrazin-2-yl)-5′-methoxy-6-methyl-[4,4′-bipyridine]-3-carboxamide]
– | > 10 | 0.001 to 0.1 | COc1cnc(Cl)cc1-c1cc(C)ncc1C(=O)Nc1nc2ncc(N3CCCCC3)nc2s1 [Example 491, 2′-chloro-5′-methoxy-6-methyl-N-(6-(piperidin-1-yl)thiazolo[4,5-b]pyrazin-2-yl)-[4,4′-bipyridine]-3-carboxamide]
– | > 10 | 0.001 to 0.1 | COc1cnc(Cl)cc1-c1cc(C)ncc1C(=O)Nc1nc2ncc([C@H]3CCOC(C)(C)C3)nc2s1 (single isomer, unassigned) [Example 379, (S or R)-2′-chloro-N-(6-(2,2-dimethyltetrahydro-2H-pyran-4-yl)thiazolo[4,5-b]pyrazin-2-yl)-5′-methoxy-6-methyl-[4,4′-bipyridine]-3-carboxamide]
– | > 10 | 0.001 to 0.1 | COc1cnc(Cl)cc1-c1cc(C)ncc1C(=O)Nc1nc2ncc(N3CC[C@](C)(O)[C@H](F)C3)nc2s1 (single isomer, unassigned) [Example 375, 2′-chloro-N-(6-((3R or S,4S or R)-3-fluoro-4-hydroxy-4-methylpiperidin-1-yl)thiazolo[4,5-b]pyrazin-2-yl)-5′-methoxy-6-methyl-[4,4′-bipyridine]-3-carboxamide]
– | > 10 | 0.001 to 0.1 | COc1cnc(Cl)cc1-c1cc(C)ncc1C(=O)Nc1nc2ncc(N3CCC(OC4CC4)CC3)nc2s1 [Example 462, 2′-chloro-N-(6-(4-cyclopropoxypiperidin-1-yl)thiazolo[4,5-b]pyrazin-2-yl)-5′-methoxy-6-methyl-[4,4′-bipyridine]-3-carboxamide]
– | > 10 | 0.001 to 0.1 | COc1cnc(Cl)cc1-c1cc(C)ncc1C(=O)Nc1nc2ncc(N3CCC(C4COC4)CC3)nc2s1 [Example 464, 2′-chloro-5′-methoxy-6-methyl-N-(6-(4-(oxetan-3-yl)piperidin-1-yl)thiazolo[4,5-b]pyrazin-2-yl)-[4,4′-bipyridine]-3-carboxamide]
– | > 10 | 0.001 to 0.1 | COc1cnc(Cl)cc1-c1cc(C)ncc1C(=O)Nc1nc2ncc(N3CCC(OC)C(F)(F)C3)nc2s1 (single isomer, unassigned) [Example 444, (R or S)-2′-chloro-N-(6-(3,3-difluoro-4-methoxypiperidin-1-yl)thiazolo[4,5-b]pyrazin-2-yl)-5′-methoxy-6-methyl-[4,4′-bipyridine]-3-carboxamide]

The remaining lines, values behind:

SMILES | IC50 [1] [nM] | IC50 (DLD1 WT cells) [µM] | IC50 (DLD1 BRCA2 (−/−) cells) [µM]
COc1ccccc1-c1cc(C)ncc1C(=O)Nc1nc2ncc(C3CCCCO3)cc2s1 (single isomer, unassigned) [Example 106, (S or R)-4-(2-methoxyphenyl)-6-methyl-N-(6-(tetrahydro-2H-pyran-2-yl)thiazolo[4,5-b]pyridin-2-yl)nicotinamide] | 15 to 50 | – | –
COc1cnc(Cl)cc1-c1cc(C)ncc1C(=O)Nc1nn2cc(C(=O)N3CC[C@H](O)C3)nc2s1 [Example 36, (S)-2′-chloro-N-(6-(3-hydroxypyrrolidine-1-carbonyl)imidazo[2,1-b][1,3,4]thiadiazol-2-y1)-5′-methoxy-6-methyl-[4,4′-bipyridine]-3-carboxamide] | 15 to 50 | – | –
COc1ccccc1-c1cc(C)ncc1C(=O)Nc1nc2nnc(Cl)cc2s1 [Example 117] | 15 to 50 | – | –
COc1cnc(Cl)cc1-c1cc(C)ncc1C(=O)Nc1nc2ncc(C3CCOC3)cc2s1 (single isomer, unassigned) [Example 516, (S or R)-2′-chloro-5′-methoxy-6-methyl-N-(6-(tetrahydrofuran-3-yl)thiazolo[4,5-b]pyridin-2-yl)-[4,4′-bipyridine]-3-carboxamide] | 1 to 15 | – | –
COc1cnc(Cl)cc1-c1cc(C)ncc1C(=O)Nc1nc2ncc(C3(OC)CCOCC3)nc2s1 [Example 373, 2′-chloro-5′-methoxy-N-(6-(4-methoxytetrahydro-2H-pyran-4-yl)thiazolo[4,5-b]pyrazin-2-yl)-6-methyl-[4,4′-bipyridine]-3-carboxamide] | 1 to 15 | – | –
COc1cnc(Cl)cc1-c1cc(Oc2cccc(N)c2)ncc1C(=O)Nc1nn2cc(C3CC3)nc2s1 [Example 494, 6-(3-aminophenoxy)-2′-chloro-N-(6-cyclopropylimidazo[2,1-b][1,3,4]thiadiazol-2-yl)-5′-methoxy-[4,4′-bipyridine]-3-carboxamide] | 15 to 50 | – | –
COc1ccccc1-c1cc(C)ncc1C(=O)Nc1nc2ncc(C(F)(F)F)cc2s1 [Example 116] | 15 to 50 | – | –
Cc1cc(-c2nn(C)c3ccncc23)c(C(=O)Nc2nc3ncc(-c4ccncc4)nc3s2)cn1 [Example 517, 6-methyl-4-(1-methyl-1H-pyrazolo[4,3-c]pyridin-3-yl)-N-(6-(pyridin-4-yl)thiazolo[4,5-b]pyrazin-2-yl)nicotinamide] | > 900 | – | –
COc1cnc(Cl)cc1-c1cc(C)ncc1C(=O)Nc1nc2ncc([C@H]3CC[C@@H](C#N)CC3)nc2s1 [Example 451, 2′-chloro-N-(6-((1s,4s)-4-cyanocyclohexyl)thiazolo[4,5-b]pyrazin-2-yl)-5′-methoxy-6-methyl-[4,4′-bipyridine]-3-carboxamide] | 1 to 15 | – | –
COc1cnc(Cl)cc1-c1cc(C)ncc1C(=O)Nc1nn2cc(C(=O)N[C@H]3CC[C@@H](O)CC3)nc2s1 [Example 292] | 1 to 15 | – | –
Cc1cc(N2CCC3(CNC(=O)C3)C2)c(C(=O)Nc2nc3ncc(-c4ccncc4)cc3s2)cn1 (racemic) [Example 201] | > 900 | – | –
COc1cnc(Cl)cc1-c1cc(C)ncc1C(=O)Nc1nc2ncc(-c3cccc(C(F)F)n3)nc2s1 [Example 446, 2′-chloro-N-(6-(6-(difluoromethyl)pyridin-2-yl)thiazolo[4,5-b]pyrazin-2-yl)-5′-methoxy-6-methyl-[4,4′-bipyridine]-3-carboxamide] | – | > 10 | 0.001 to 0.1

From patent publication US20260015360A1 (MOMA Therapeutics, Inc., priority 2023, published 2026)
